Data on 20 compounds can be found in patent US20230399287A1, “NOVEL COMPOUNDS” (Sitryx Therapeutics Limited, priority 2020, published 2023).

The subject of one data set is IL-1β. Kind of data set: THP-1 AlphaLISA IL-1β cytokine assay. In kind it is cell-based. The note with it: LPS 24 hr then Nigericin 1 hour. The method, then: (§1) Measuring Inhibitory Effects on IL-1V and IL-6 Cytokine Output from THP-1s
(§2) The cytokine inhibition profiles of compounds of formula (I) were determined in a differentiated THP-1 cell assay. All assays were performed in RPMI-1640 growth medium (Gibco), supplemented with 10% fetal bovine serum (FBS; Gibco), 1% penicillin-streptomycin and 1% sodium pyruvate unless specified otherwise. The IL-1β and IL-6 cytokine inhibition assays were run in a background of differentiated THP-1 cells as described below. All reagents described were from Sigma-Aldrich unless specified otherwise. Compounds were prepared as 10 mM DMSO stocks.
(§3) THP-1 cells were expanded as a suspension up to 80% confluence in appropriate growth medium. Cells were harvested, suspended, and treated with an appropriate concentration of phorbol 12-myristate 13-acetate (PMA) over a 72 hr period (37° C./5% CO2).
(§4) Following 72 hrs of THP-1 cell incubation, cellular medium was removed and replaced with fresh growth media containing 1% of FBS. Working concentrations of compounds were prepared separately in 10% FBS treated growth medium and pre-incubated with the cells for 30 minutes (37° C./5% CO2). Following the 30 minute compound pre-incubation, THP-1s were treated with an appropriate concentration of LPS and the THP-1s were subsequently incubated for a 24 hr period (37° C./5% CO2). An appropriate final concentration of Nigericin was then dispensed into the THP-1 plates and incubated for 1 hour (37° C./5% CO2) before THP-1 supernatants were harvested and collected in separate polypropylene 96-well holding plates.
(§5) Reagents from each of the IL-1β and IL-6 commercial kits (Perkin Elmer) were prepared and run according to the manufacturer's instructions. Subsequently, fluorescence signal detection in a microplate reader was measured (EnVision® Multilabel Reader, Perkin Elmer).
(§6) Percentage inhibition was calculated per cytokine by normalising the sample data to the high and low controls used within each plate (+/−LPS respectively). Percentage inhibition was then plotted against compound concentration and the 50% inhibitory concentration ([…]) was determined from the resultant concentration-response curve.

In data set [1] the test system is hepatocytes. The data set is described as follows: Hepatocyte stability assay (human). Conditions: 10 μM compound, 60 min. It counts as in vitro ADME. From the text: (§7) Defrosted cryo-preserved hepatocytes (viability>70%) were used to determine the metabolic stability of a compound via calculation of intrinsic clearance (Clint; a measure of the removal of a compound from the liver in the absence of blood flow and cell binding). Clearance data are particularly important for in vitro work as they can be used in combination with in vivo data to predict the half-life and oral bioavailability of a drug.
(§8) The metabolic stability in hepatocytes assay involved a time-dependent reaction using both positive and negative controls. The cells must be pre-incubated at 37° C. then spiked with test compound (and positive control); samples taken at pre-determined time intervals were analysed to monitor the change in concentration of the initial drug compound over 60 minutes. A buffer incubation reaction (with no hepatocytes present) acted as a negative control and two cocktail solutions, containing compounds with known high and low clearance values (verapamil/7-hydroxycoumarin and propranolol/diltiazem), acted as positive controls. • 1. The assay was run with a cell concentration of 0.5×10^6 cells/mL in Leibovitz buffer. • 2. All compounds and controls were run in duplicate. • 3. Compound concentration was 10 μM. • 4. All compounds and controls were incubated with both cells and buffer to show turnover is due to hepatic metabolism. • 5. All wells on the incubation plate had 326.7 μL of either cells or buffer added. • 6. Prior to assay, cell and buffer-only incubation plates were preincubated for 10 mins at 37° C. • 7. The assay was initiated by adding compounds, 3.3 μL of 1 mM in 10% DMSO-90% Buffer; final DMSO concentration is 0.1%. • 8. Samples were taken at regular timepoints (0, 5, 10, 20, 40, 60 min) until 60 mins. • 9. Sample volume was 40 μL and added to 160 μL of crash solvent (acetonitrile with internal standard) and stored on ice. • 10. At the end of the assay, the crash plates were centrifuged at 3500 rpm for 20 mins at 4° C. • 11. 80 μL of clear supernatant was removed and mixed with 80 μL of deionised water before being analysed by LC-MS/MS.
(§9) Raw LC-MS/MS data were exported to, and analysed in, Microsoft Excel for determination of intrinsic clearance. The percentage remaining of a compound was monitored using the peak area of the initial concentration as 100%. Intrinsic clearance and half-life values were calculated using a graph of the natural log of percentage remaining versus the time of reaction in minutes. Half-life (min) and intrinsic clearance (Clint in μL min^−1 10^−6 cells) values were calculated using the gradient of the graph (the elimination rate constant, k) and Equations 1 and 2.

Data set [2] concerns hepatocytes. Kind of data set: Hepatocyte stability assay (mouse). It counts as in vitro ADME. The note with it: 10 μM compound, 60 min.
From the text: as §7, §8, §9

The next data set concerns IL-6. Kind of data set: THP-1 AlphaLISA IL-6 cytokine assay. In kind it is cell-based. The note with it: LPS 24 hr then Nigericin 1 hour. As to the method:
as §1, §2, §3, §4, §5, §6
A general note: In Alpha technology, singlet oxygen from a donor bead excites a nearby acceptor bead.

In another data set the test system is NRF2. Kind of data set: NRF2 +/- GSH activation assay (DiscoverX PathHunter NRF2 translocation kit). It counts as cell-based. The note with it: for EC50: U2OS PathHunter cells; for NRF2 activation Emax / Emax: normalised to dimethyl fumarate high control.
Setting [3] is: Homo sapiens, THP-1, differentiated THP-1 cells.

Where a name gives a salt, the structure may show the parent alone.

Consider `C#CC(OC(=O)CC(=C)C(=O)O)c1ccc(C(F)(F)F)cc1` (single isomer, unassigned) [Example 37, 2-methylene-4-oxo-4-((1-(4-(trifluoromethyl)phenyl)prop-2-yn-1-yl)oxy)butanoic acid], for which the IC50 in the data set with IL-1β (setting [3]) is 14.5 µM; in the data set on IL-6 (differentiated THP-1 cells), more than 31.6 µM. For the same compound, the results for the Clint in the data set with hepatocytes [1] and in the data set on hepatocytes [2] were less than 3 μL min^−1 10^−6 cells and 34 μL min^−1 10^−6 cells, respectively. The T½ in the data set on hepatocytes [1] is more than 7.67 h; in the data set with hepatocytes [2], 0.8 h.
Regarding `C#CC(OC(=O)CC(=C)C(=O)O)c1ccc(C(F)(F)F)cc1` (single isomer, unassigned) [Example 38, 2-methylene-4-oxo-4-((1-(4-(trifluoromethyl)phenyl)prop-2-yn-1-yl)oxy)butanoic acid], the IC50 with IL-1β (differentiated THP-1 cells) is 9.4 µM; in the data set with IL-6 (differentiated THP-1 cells), more than 100 µM. Also, the Clint came to 7 μL min^−1 10^−6 cells in the data set on hepatocytes [1] and 13 μL min^−1 10^−6 cells with hepatocytes [2]. Further, the T½ in the data set with hepatocytes [1] was found to be 3.05 h; in the data set with hepatocytes [2] it was 2.72 h.
In the case of `C=C(CC(=O)OC1(c2ccc(C(F)(F)F)cc2)CC(C(F)(F)F)C1)C(=O)O` (single isomer, unassigned) [Example 43, 2-methylene-4-oxo-4-(3-(trifluoromethyl)-1-(4-(trifluoromethyl)phenyl)cyclobutoxy)butanoic acid], the half-maximal inhibitory concentration (IC50) with IL-1β (setting [3]) was 83.5 µM; in the data set with IL-6 (setting [3]) it was more than 100 µM.
For the compound `C=C(CC(=O)OCCCCCCCC)C(=O)O` [4-octyl itaconate, reference compound], the IC50 in the data set with IL-1β (differentiated THP-1 cells) amounted to 38.3 µM; with IL-6 (differentiated THP-1 cells) it was 20.3 µM. Moreover, the Clint worked out at 401 μL min^−1 10^−6 cells in the data set on hepatocytes [1] and 351 μL min^−1 10^−6 cells in the data set with hepatocytes [2]. Moreover, the T½ in the data set on hepatocytes [1] and in the data set on hepatocytes [2] was 0.067 h each time. Further, the EC50 is 28.9 µM with NRF2 (+GSH) and 22.1 µM in the data set on NRF2 (−GSH). Also, the results for the “NRF2 activation Emax” value in the data set with NRF2 (+GSH) and in the data set on NRF2 (−GSH) were 148% and 165%, respectively.
For the compound `C=C(CC(=O)O[C@H](C)c1ccc(C(F)(F)F)cc1)C(=O)O` [Example 3, (R)-2-methylene-4-oxo-4-(1-(4-(trifluoromethyl)phenyl)ethoxy)butanoic acid], the IC50 in the data set with IL-1β (setting [3]) is 33.6 µM; in the data set with IL-6 (setting [3]) it was more than 56.2 µM.
Turning to `C=C(CC(=O)OC1(c2ccc(C(F)(F)F)cc2Cl)CCC1)C(=O)O` [Example 6, 4-(1-(2-chloro-4-(trifluoromethyl)phenyl)cyclobutoxy)-2-methylene-4-oxobutanoic acid], the IC50 in the data set on IL-1β (setting [3]) was 45.4 µM; in the data set on IL-6 (setting [3]) it was more than 100 µM.
`C=C(CC(=O)OC(CC)c1ccc(C(F)(F)F)cc1)C(=O)O` (stereo not drawn) [Example 10, 2-methylene-4-oxo-4-(1-(4-(trifluoromethyl)phenyl)propoxy)butanoic acid]: the IC50 in the data set with IL-1β (setting [3]) is 5.8 µM; in the data set on IL-6 (setting [3]), more than 100 µM. Also, the Emax in the data set on NRF2 (+GSH) turned out to be 13%; in the data set with NRF2 (−GSH), 0%. The 50% effective concentration (EC50) in the data set with NRF2 (Homo sapiens, U2OS, +GSH) was more than 100 µM; with NRF2 (Homo sapiens, U2OS, −GSH), more than 100 µM.
For the compound `C=C(CC(=O)OC1(c2ccc(C)c(Cl)c2)CCC1)C(=O)O` [Example 14, 4-(1-(3-chloro-4-methylphenyl)cyclobutoxy)-2-methylene-4-oxobutanoic acid], the IC50 with IL-1β (setting [3]) was 24.5 µM; with IL-6 (setting [3]), more than 100 µM.
As for `C=C(CC(=O)OC1(c2ccc(OC(F)(F)F)cc2)CCC1)C(=O)O` [Example 15, 2-methylene-4-oxo-4-(1-(4-(trifluoromethoxy)phenyl)cyclobutoxy)butanoic acid], the IC50 is 15.9 µM in the data set with IL-1β (setting [3]) and more than 100 µM in the data set on IL-6 (setting [3]).
Regarding `C=C(CC(=O)OC1(c2ccc(-c3ccc(F)cc3)cc2)CCC1)C(=O)O` [Example 16, 4-(1-(4′-fluoro-[1,1′-biphenyl]-4-yl)cyclobutoxy)-2-methylene-4-oxobutanoic acid], the values for the half-inhibitory concentration (IC50) with IL-1β (setting [3]) and with IL-6 (setting [3]) were more than 100 µM and 21.5 µM, respectively.
For `C=C(CC(=O)OC1(c2ccc(C(F)(F)c3ccccc3)cc2)CCC1)C(=O)O` [Example 28, 4-(1-(4-(difluoro(phenyl)methyl)phenyl)cyclobutoxy)-2-methylene-4-oxobutanoic acid] the same measures were more than 31.6 µM and 19.6 µM.
For `C=C(CC(=O)O[C@@H](c1ccc(C(F)(F)F)cc1)C(F)(F)F)C(=O)O` [Example 33, (S)-2-methylene-4-oxo-4-(2,2,2-trifluoro-1-(4-(trifluoromethyl)phenyl)ethoxy)butanoic acid], the 50% inhibitory concentration (IC50) is more than 56.2 µM in the data set with IL-1β (setting [3]) and more than 63.1 µM with IL-6 (setting [3]).
The matching figures for `C=C(CC(=O)OC1(c2ccc(C(F)(F)F)cc2)CN(C)C1)C(=O)O` [Example 48, 4-((1-methyl-3-(4-(trifluoromethyl)phenyl)azetidin-3-yl)oxy)-2-methylene-4-oxobutanoic acid]: 58.4 µM and more than 31.6 µM.
The matching figures for `C=C(CC(=O)OC1(c2cc(F)c(C(F)(F)F)c(F)c2)CCC1)C(=O)O` [Example 53, 4-(1-(3,5-difluoro-4-(trifluoromethyl)phenyl)cyclobutoxy)-2-methylene-4-oxobutanoic acid]: 29.7 µM and more than 100 µM.
In the case of `C=C(CC(=O)OC1(c2ccc3cc(Br)ccc3c2)CCC1)C(=O)O` [Example 54, 4-(1-(6-bromonaphthalen-2-yl)cyclobutoxy)-2-methylene-4-oxobutanoic acid], the IC50 in the data set on IL-1β (setting [3]) was more than 100 µM; with IL-6 (setting [3]), 18.1 µM.
`C=C(CC(=O)OCc1ccc(C(F)(F)F)cn1)C(=O)O` [Example 56, 2-methylene-4-oxo-4-((5-(trifluoromethyl)pyridin-2-yl)methoxy)butanoic acid]: the figures for the IC50 with IL-1β (setting [3]) and in the data set on IL-6 (setting [3]) were 46.2 µM and more than 100 µM, respectively.
Take `C=C(CC(=O)OC1(C#Cc2ccc(C(F)(F)F)cc2)CCC1)C(=O)O` [Example 60, 2-methylene-4-oxo-4-(1-((4-(trifluoromethyl)phenyl)ethynyl)cyclobutoxy)butanoic acid]: the IC50 was more than 100 µM with IL-1β (setting [3]) and 34.1 µM with IL-6 (setting [3]).
On to `C=C(CC(=O)OC1(c2cnc(C(F)(F)F)cn2)CCC1)C(=O)O` [Example 63, 2-methylene-4-oxo-4-(1-(5-(trifluoromethyl)pyrazin-2-yl)cyclobutoxy)butanoic acid], for which the figures for the IC50 with IL-1β (setting [3]) and in the data set with IL-6 (setting [3]) were 50.9 µM and more than 31.6 µM, respectively.
In the case of `COC(=O)/C=C/C(=O)OC` [dimethyl fumarate, reference compound], the IC50 was 14.4 µM in the data set with IL-1β (differentiated THP-1 cells) and 9.3 µM with IL-6 (setting [3]). Also, the Emax amounted to 19% with NRF2 (+GSH) and 100% with NRF2 (−GSH). For the same compound, the EC50 in the data set with NRF2 (Homo sapiens, U2OS, +GSH) was more than 100 µM; in the data set with NRF2 (Homo sapiens, U2OS, −GSH), 6 µM.
On to `C=C(CC(=O)OC)C(=O)OC` [dimethyl itaconate, reference compound], for which the IC50 in the data set on IL-1β (setting [3]) is more than 100 µM; with IL-6 (setting [3]) it was 100 µM. Besides, the results for the Emax with NRF2 (+GSH) and in the data set with NRF2 (−GSH) were 77% and 137%, respectively.

Usually IC50 stands for the concentration that gives 50% inhibition. A lower IC50 goes with inhibition by little substance. A word on the EC50: it is the concentration that produces a half-maximal response. Lower therefore signals an effect from little substance. The term Emax denotes the greatest response seen or fitted, relative to the assay's reference.
